In patent US20250092065A1, “2-(INDAZOL-5-YL)-6-(PIPERIDIN-4-YL)-1,7-NAPHTHYRIDINE DERIVATIVES AND RELATED COMPOUNDS AS MODULATORS FOR SPLICING NUCLEIC ACIDS AND FOR THE TREATMENT OF PROLIFERATIVE DISEASES” (REMIX THERAPEUTICS INC., priority 2022, published 2025):
Read-outs that look alike come from different tables or passages of the source.

Assays:
[1] = tested on: HTT mRNA; assay: RT-qPCR splicing assay, HTT mRNA canonical (CJ) and alternative (AJ) junction; assay type: cell-based, human; details: Homo sapiens; for AC50: HTT alternative junction mRNA increase, read-out: HTT AJ (increase in alternative junction mRNA, AC50)
Procedure: (§1) Compounds described herein were used to modulate RNA transcript abundance in cells. The expression of a target mRNA was measured by detecting the formation of an exon-exon junction in the canonical transcript (CJ). A compound mediated exon-inclusion event was detected by observing an increase in formation of a new junction with an alternative exon (AJ). Real-time qPCR assays were used to detect these splicing switches and interrogate the potency of various compounds towards different target genes. A high-throughput real time quantitative PCR (RT-qPCR) assay was developed to measure these two isoforms of the mRNA (CJ and AJ) for exemplary genes, such as HTT, SMN2, and MYB, together with a control housekeeping gene, GAPDH or GUSB or PPIA, used for normalization. Briefly, the A673 or K562 cell line was treated with various compounds described herein (e.g., compounds of Formula (I)). After treatment, the levels of the HTT, MYB, or SMN2 mRNA targets were determined from each sample of cell lysate by cDNA synthesis followed by qPCR.
(§2) The A673 cell line was cultured in DMEM with 10% FBS. Cells were diluted with full growth media and plated in a 96-well plate (15,000 cells in 100 ul media per well). The plate was incubated at 37° C. with 5% CO2 for 24 hours to allow cells to adhere. An 11-point 3-fold serial dilution of the compounds was made in DMSO then diluted in media in an intermediate plate. Compounds were transferred from the intermediate plate to the cell plate with the top dose at a final concentration of 10 uM in the well. Final DMSO concentration was kept at or below 0.25%. The cell plate was returned to the incubator at 37° C. with 5% CO2 for an additional 24 hours.
(§3) The K562 cell line was cultured in IMDM with 10% FBS. For K562, cells were diluted with full growth media and plated in either a 96-well plate (50,000 cells in 50 uL media per well) or a 384-well plate (8,000-40,000 cells in 45 uL media per well). An 11-point 3-fold serial dilution of the compounds were made in DMSO then diluted in media in an intermediate plate. Compound was transferred from the intermediate plate to the cell plate with the top dose at a final concentration of 10 uM in the well. Final DMSO concentration was kept at or below 0.25%. Final volume was 100 uL for 96-well plate and 50 uL for 384-well plate. The cell plate was then placed in an incubator at 37° C. with 5% CO2 for 24 hours.
(§4) The cells were then gently washed with 50 uL-100 uL cold PBS before proceeding to addition of lysis buffer. 30 uL-50 μL of room temperature lysis buffer with DNAse I (and optionally RNAsin) was added to each well. Cells were shaken/mixed thoroughly at room temperature for 5-10 minutes for lysis to take place and then 3 uL-5 μL of room temperature stop solution was added and wells were shaken/mixed again. After 2-5 minutes, the cell lysate plate was transferred to ice for RT-qPCR reaction setup. The lysates could also be frozen at −80° C. for later use.
(§5) In some cases, a direct lysis buffer was used. An appropriate volume of 3× lysis buffer (10 mM Tris, 150 mM NaCl, 1.5%-2.5% Igepal and 0.1-1 U/uL RNAsin, pH 7.4) was directly added to either K562 or A673 cells in media and mixed by pipetting 3 times. The plates were then incubated at room temperature with shaking/rocking for 20-50 minutes to allow for lysis to take place. After this time, the cell lysate plate was transferred to ice to set up for the RT-qPCR reactions. The lysates could also be frozen at −80° C. for later use.
(§6) To set up 10 uL RT-qPCR reactions, cell lysates were transferred to 384-well qPCR plates containing the master mix according to the table below. The plates were sealed, gently vortexed, and spun down before the run. The volumes were adjusted accordingly in some instances where the reaction was carried in 20 μL. The table below summarizes the components of the RT-qPCR reactions:
(§7) The RT-qPCR reaction was performed using a QuantStudio (ThermoFisher) under the following fast cycling conditions. […]

[2] = tested on: MYB mRNA; assay: RT-qPCR splicing assay, MYB mRNA canonical (CJ) and alternative (AJ) junction; assay type: cell-based, human; details: Homo sapiens; for AC50: MYB alternative junction mRNA increase, read-out: MYB AJ (increase in alternative junction mRNA, AC50)
Procedure: as §1, §2, §3, §4, §5, §6, §7

[3] = tested on: SMN2 mRNA; assay: RT-qPCR splicing assay, SMN2 mRNA; assay type: cell-based, human; details: Homo sapiens, canonical junction qPCR panel, Table 4; read-out: SMN2 IC50 (decrease in CJ mRNA levels)
Procedure: as §1, §2, §3, §4, §5, §6, §7

[4] = tested on: K562 cells; assay: Cell Titer Glo 2.0 cell viability (toxicity) assay, K562; details: 500 cells/well, 72 hours
[5] = RT-qPCR, HTT canonical junction mRNA decrease, read-out: HTT CJ (decrease in canonical junction mRNA, IC50)
[6] = canonical junction qPCR panel, Table 4, read-out: HTT IC50 (decrease in CJ mRNA levels)
[7] = RT-qPCR, MYB canonical junction mRNA decrease, read-out: MYB CJ (decrease in canonical junction mRNA, IC50)
[8] = canonical junction qPCR panel, Table 4, read-out: MYB IC50 (decrease in CJ mRNA levels)

IC50 [1, 5]	IC50 [1, 6]	IC50 [2, 7]	IC50 [2, 8]	IC50 [3]	Compound	AC50 ([1]; RT-qPCR)	AC50 ([2]; RT-qPCR)	Effect of Exemplary Compounds on Cell Viability, K562 [4]
> 10000 nM	> 10000 nM	100 to 1000 nM	100 to 1000 nM	< 100 nM	Cc1cn2cc(-c3ncc4cc(N5C[C@@H](C)N[C@@H](C)C5)ccc4n3)ccc2n1 [Compound 832]	> 10000 nM	1000 to 10000 nM	C (C represents 1000-9999 nM)
1000 to 10000 nM	1000 to 10000 nM	1000 to 10000 nM	1000 to 10000 nM	100 to 1000 nM	C[C@@H]1CN(c2ccc3nc(-c4cc(F)c5nncn5c4)ncc3c2)C[C@H](C)N1 [Compound 833]	1000 to 10000 nM	1000 to 10000 nM	C (C represents 1000-9999 nM)
1000 to 10000 nM	1000 to 10000 nM	100 to 1000 nM	100 to 1000 nM	< 100 nM	C[C@@H]1CN(c2ccc3nc(-c4cc(F)c5nc(CO)cn5c4)ncc3c2)C[C@H](C)N1 [Compound 834, (6-{6-[(3R,5S)-3,5-dimethylpiperazin-1-yl]quinazolin-2-yl}-8-fluoroimidazo[1,2-a]pyridin-2-yl)methanol]	1000 to 10000 nM	100 to 1000 nM	C (C represents 1000-9999 nM)
1000 to 10000 nM	1000 to 10000 nM	100 to 1000 nM	100 to 1000 nM	< 100 nM	C[C@@H]1CN(c2ccc3nc(-c4cc(F)c5nc(CF)cn5c4)ncc3c2)C[C@H](C)N1 [Compound 835, 6-[(3R,5S)-3,5-dimethylpiperazin-1-yl]-2-[8-fluoro-2-(fluoromethyl)imidazo[1,2-a]pyridin-6-yl]quinazoline]	1000 to 10000 nM	100 to 1000 nM	B (B represents 100-1000 nM)
1000 to 10000 nM	1000 to 10000 nM	> 10000 nM	> 10000 nM	100 to 1000 nM	CCc1cn2cc(-c3ncc4cc(N5C[C@@H](C)N[C@@H](C)C5)ccc4n3)cc(F)c2n1 [Compound 836]	> 10000 nM	1000 to 10000 nM	C (C represents 1000-9999 nM)
–	–	–	–	–	Cc1cn2cc(-c3ncc4cc(N5C[C@@H](C)N[C@@H](C)C5)ccc4n3)cc(Cl)c2n1 [Compound 896]	–	–	B (B represents 100-1000 nM)
1000 to 10000 nM	1000 to 10000 nM	< 100 nM	< 100 nM	< 100 nM	Cn1cc2cc(-c3ncc4cc(N5CC[C@H](NC(C)(C)C)C5)ccc4n3)c(O)c(F)c2n1 [Compound 929]	100 to 1000 nM	< 100 nM	–
1000 to 10000 nM	1000 to 10000 nM	100 to 1000 nM	100 to 1000 nM	< 100 nM	Cn1cc2cc(-c3ncc4cc(N5CC[C@@H](NC(C)(C)C)C5)ccc4n3)c(O)c(F)c2n1 [Compound 930]	> 10000 nM	100 to 1000 nM	–
